Data published in EP1285918A1, “C7 Ester substituted taxanes as antitumor agents” (Florida State University Research Foundation, Inc., priority 2001, dated 2003).
Like-named read-outs stand apart in the source and are kept apart here.

Legend:
HCT116 = assay: In Vitro cytotoxicity measured by the cell colony formation assay; format: cell-based; conditions: Homo sapiens, HCT-116; 72 h drug incubation, colonies counted after 7 days; concentration producing 50% inhibition of colony formation; read-out: IN VITRO ID 50 (nm) HCT116
[1] = test system: SKMES human lung cancer xenograft; conditions: for Survivors / Complete Responses / Partial Responses / Stable Disease / Toxic Deaths / MDS (n) / % Total Response: 6 mice/group, study end Day 62; for 62-day survivors: 6 mice; for MDS (n): days until tumor reached 2.0 g; for MDS: 2.0 g cut-off
Procedure: Female Nu/Nu mice (6-8 weeks of age; implanted with 1 mm^3 SKMES lung carcinoma fragments in the flank) were sorted into treatment groups of six mice each. […] Treatment was administered as a single bolus on Day 1, and the study was terminated on Day 62.
(§1) The mean days of survival is the number of days after which a SKMES neoplasm reached a size of 2.0 g and the animal was euthanized. A complete response is obtained if the tumor is not palpable at the end of the study. A partial response is obtained if the tumor shrinks to a size smaller than its size on Day 1 of the study.

[2] = test system: MX-1 Human Breast Carcinoma Xenograft; conditions: for Survivors / Complete Responses / Partial Responses / Stable Disease / Toxic Deaths / MDS (n): 6 mice/group, study end Day 60; for MDS (n): days until tumor reached 1.5 g
Procedure: The antitumor compounds were prepared in the following vehicle: 5% ethanol, 5% Cremophor and 90% isotonic saline.
Female Nu/Nu mice (12-13 weeks of age; implanted with 1 mm^3 MX-1 human breast carcinoma fragments in the flank) were sorted into treatment groups of six mice each (MX-1 tumor size ranges and group mean MX-1 tumor size ranges were 56-138 mg and 68-74 mg, respectively). […] All treatments were administered as a single oral bolus on Day 1, and the study was terminated on Day 60.
as §1, with “an MX-1” for “a SKMES”, “1.5” for “2.0”

[3] = test system: HCT116 Human Colon Carcinoma Xenograft; conditions: HCT116, i.v. Day 1 (Taxol 36 mg/kg split dose, 1393 73 mg/kg single dose)
[4] = test system: A375 Human Melanoma Xenograft; conditions: 10 mice/group, study end Day 60
Procedure: Female nu/nu mice (6-8 weeks of age; implanted subcutaneously with 1 mm^3 A375 melanoma fragments in the flank) were sorted into one control and four treatment groups of ten mice each (group mean tumor size of 96-98 mg). […] The study was terminated on Day 60.
as §1, with “a” for “a SKMES”

[5] = 5.2 mg/kg single IV bolus Day 1
[6] = 5.2 mg/kg single oral bolus Day 1
[7] = 10.4 mg/kg single IV bolus Day 1
[8] = 10.4 mg/kg single oral bolus Day 1
[9] = 20.8 mg/kg single IV bolus Day 1
[10] = 20.8 mg/kg single oral bolus Day 1
[11] = 42 mg/kg single oral bolus Day 1
[12] = 73 mg/kg single oral bolus Day 1
[13] = 104 mg/kg single IV bolus Day 1
[14] = 104 mg/kg single oral bolus Day 1
[15] = 73.4 mg/kg single oral bolus Day 1
[16] = 105 mg/kg single oral bolus Day 1
[17] = oral 36.5 mg/kg on Days 1, 15, 29 and 43 (q14dx3, cumulative 109.5 mg/kg)
[18] = oral 73 mg/kg on Day 1, then 21.9 mg/kg on Days 11, 21, 31 and 41 (cumulative 160.6 mg/kg)
[19] = 70 mg/kg single oral bolus Day 1
[20] = 100 mg/kg single oral bolus Day 1

SMILES: CCC(=O)O[C@H]1C[C@H]2OC[C@@]2(OC(C)=O)[C@H]2[C@H](OC(=O)c3ccccc3)[C@]3(O)C[C@H](OC(=O)[C@H](O)[C@@H](NC(=O)OC(C)(C)C)c4ccoc4)C(C)=C([C@@H](O)C(=O)[C@]12C)C3(C)C [Compound 1401]
- IC50 (HCT116): < 1 nM

SMILES: CCC(=O)OC1CC2OCC2(OC(C)=O)C2C(OC(=O)c3ccccc3)C3(O)CC(OC(=O)C(O)C(NC(=O)OC(C)(C)C)c4ccco4)C(C)=C(C(O)C(=O)C12C)C3(C)C (stereo not drawn) [Compound 1393, 3'-Desphenyl-3'-(2-furyl)-7-propionyl taxotere]
- Survivors [1, 5]: 0
- Survivors [1, 6]: 0
- Survivors [1, 7]: 0
- Survivors [1, 8]: 0
- Survivors [1, 9]: 0
- Survivors [1, 10]: 0
- Survivors ([1]; 42 mg/kg single IV bolus Day 1): 4
- Survivors [1, 11]: 0
- Survivors ([1]; 73 mg/kg single IV bolus Day 1): 6
- Survivors [1, 12]: 2
- Survivors [1, 13]: 6
- Survivors [1, 14]: 5
- 62-day survivors ([1]; SKMES, 1393 single IV bolus 42 mg/kg (Group 5)): four
- 62-day survivors ([1]; SKMES, 1393 single IV bolus 73 mg/kg (Group 4)): six
- 62-day survivors ([1]; SKMES, 1393 single IV bolus 104 mg/kg (Group 3)): six
- 62-day survivors ([1]; SKMES, 1393 single oral bolus 72.8 mg/kg (Group 12)): two
- 62-day survivors ([1]; SKMES, 1393 single oral bolus 104 mg/kg (Group 11)): Five
- Survivors [2, 15]: 5
- Survivors [2, 16]: 5
- Survivors ([3]; 5 mice/group, Day 60): 5
- Survivors ([4]; 104 mg/kg single oral bolus): 9
- Survivors [4, 17]: 4
- Survivors [4, 18]: 9

SMILES: CC(=O)O[C@@]12CO[C@@H]1C[C@H](O)[C@@]1(C)C(=O)[C@H](O)C3=C(C)[C@@H](OC(=O)[C@H](O)[C@@H](NC(=O)OC(C)(C)C)c4ccccc4)C[C@@](O)([C@@H](OC(=O)c4ccccc4)[C@H]21)C3(C)C [docetaxel, reference compound]
- Complete Responses [2, 19]: 0
- Partial Responses [2, 19]: 0
- Stable Disease [2, 19]: 0
- Survivors [2, 19]: 0
- Toxic Deaths [2, 19]: 0
- MDS (n) [2, 19]: 27.9 ± 4.3 (6) days
- Complete Responses [2, 20]: 0
- Partial Responses [2, 20]: 1
- Stable Disease [2, 20]: 0
- Survivors [2, 20]: 1
- Toxic Deaths [2, 20]: 0
- MDS (n) [2, 20]: 27.1 ± 3.5 (5) days
- Partial Response ([2]; MX-1, single oral bolus, Taxol 40 and 28 mg/kg groups together, Taxotere 100 and 70 mg/kg groups together, Day 60): One
- IC50 (HCT116): 0.6 nM

SMILES: CCC(=O)O[C@H]1C[C@H]2OC[C@@]2(OC(C)=O)[C@H]2[C@H](OC(=O)c3ccccc3)[C@]3(O)C[C@H](OC(=O)[C@H](O)[C@@H](NC(=O)OC(C)(C)C)c4cccs4)C(C)=C([C@@H](O)C(=O)[C@]12C)C3(C)C [Compound 1418]
- IC50 (HCT116): < 1 nM

SMILES: CCC(=O)O[C@H]1C[C@H]2OC[C@@]2(OC(C)=O)[C@H]2[C@H](OC(=O)c3ccccc3)[C@]3(O)C[C@H](OC(=O)[C@H](O)[C@H](C=C(C)C)NC(=O)OC(C)(C)C)C(C)=C([C@@H](O)C(=O)[C@]12C)C3(C)C [Compound 1351]
- IC50 (HCT116): < 1 nM

SMILES: CCC(=O)O[C@H]1C[C@H]2OC[C@@]2(OC(C)=O)[C@H]2[C@H](OC(=O)c3ccccc3)[C@]3(O)C[C@H](OC(=O)[C@H](O)[C@@H](NC(=O)OC(C)(C)C)c4ccco4)C(C)=C([C@@H](O)C(=O)[C@]12C)C3(C)C [Compound 1393, 3'-Desphenyl-3'-(2-furyl)-7-propionyl taxotere]
- Complete Responses [1, 5]: 0
- Partial Responses [1, 5]: 0
- Stable Disease [1, 5]: 0
- Toxic Deaths [1, 5]: 0
- MDS (n) [1, 5]: 10.5 ± 0.9 (6) days
- % Total Response [1, 6]: 0%
- Complete Responses [1, 6]: 0
- Partial Responses [1, 6]: 0
- Stable Disease [1, 6]: 0
- Toxic Deaths [1, 6]: 0
- MDS (n) [1, 6]: 9.2 ± 0.8 (6) days
- Complete Responses [1, 7]: 0
- Partial Responses [1, 7]: 0
- Stable Disease [1, 7]: 0
- Toxic Deaths [1, 7]: 0
- MDS (n) [1, 7]: 16.3 ± 1.3 (6) days
- % Total Response [1, 8]: 0%
- Complete Responses [1, 8]: 0
- Partial Responses [1, 8]: 0
- Stable Disease [1, 8]: 0
- Toxic Deaths [1, 8]: 0
- MDS (n) [1, 8]: 9.1 ± 0.7 (6) days
- % Total Response [1, 9]: 0%
- Complete Responses [1, 9]: 0
- Partial Responses [1, 9]: 0
- Stable Disease [1, 9]: 0
- Toxic Deaths [1, 9]: 0
- MDS (n) [1, 9]: 23.2 ± 1.8 (6) days
- % Total Response [1, 10]: 0%
- Complete Responses [1, 10]: 0
- Partial Responses [1, 10]: 0
- Stable Disease [1, 10]: 0
- Toxic Deaths [1, 10]: 0
- MDS (n) [1, 10]: 9.6 ±0.6 (6) days
- % Total Response ([1]; 42 mg/kg single IV bolus Day 1): 66.7%
- Complete Responses ([1]; 42 mg/kg single IV bolus Day 1): 3
- Partial Responses ([1]; 42 mg/kg single IV bolus Day 1): 1
- Stable Disease ([1]; 42 mg/kg single IV bolus Day 1): 0
- Toxic Deaths ([1]; 42 mg/kg single IV bolus Day 1): 0
- % Total Response [1, 11]: 0%
- Complete Responses [1, 11]: 0
- Partial Responses [1, 11]: 0
- Stable Disease [1, 11]: 0
- Toxic Deaths [1, 11]: 0
- MDS (n) [1, 11]: 14.5 ± 1.1 (6) days
- % Total Response ([1]; 73 mg/kg single IV bolus Day 1): 100%
- Complete Responses ([1]; 73 mg/kg single IV bolus Day 1): 3
- Partial Responses ([1]; 73 mg/kg single IV bolus Day 1): 3
- Stable Disease ([1]; 73 mg/kg single IV bolus Day 1): 0
- Toxic Deaths ([1]; 73 mg/kg single IV bolus Day 1): 0
- % Total Response [1, 12]: 40%
- Complete Responses [1, 12]: 2
- Partial Responses [1, 12]: 0
- Stable Disease [1, 12]: 0
- Toxic Deaths [1, 12]: 1
- MDS (n) [1, 12]: 36.3 ±1.5 (3) days
- % Total Response [1, 13]: 100%
- Complete Responses [1, 13]: 5
- Partial Responses [1, 13]: 1
- Stable Disease [1, 13]: 0
- Toxic Deaths [1, 13]: 0
- % Total Response [1, 14]: 83.3%
- Complete Responses [1, 14]: 4
- Partial Responses [1, 14]: 1
- Stable Disease [1, 14]: 0
- Toxic Deaths [1, 14]: 0
- activity ([1]; SKMES, 1393 orally, lower doses (20.8, 10.4, 5.2 mg/kg)): not active
- MDS ([1]; SKMES, 1393 single IV bolus 10.4 mg/kg (Group 7)): 16.3 days
- MDS ([1]; SKMES, 1393 single IV bolus 20.8 mg/kg (Group 6)): 23.2 days
- Complete Responses [2, 15]: 4
- Partial Responses [2, 15]: 0
- Stable Disease [2, 15]: 1
- Toxic Deaths [2, 15]: 1
- Complete Responses [2, 16]: 5
- Partial Responses [2, 16]: 0
- Stable Disease [2, 16]: 0
- Toxic Deaths [2, 16]: 0
- Partial Response ([3]; 5 mice/group, Day 60): 4
- Stable Disease ([3]; 5 mice/group, Day 60): 0
- Mean Score ([3]; tumor score 1 to 10, group mean): 9.2 ± 0.2
- Complete Response ([4]; 104 mg/kg single oral bolus): 9
- Partial Response ([4]; 104 mg/kg single oral bolus): 0
- Stable Disease ([4]; 104 mg/kg single oral bolus): 0
- Toxic Deaths ([4]; 104 mg/kg single oral bolus): 0
- Complete Response [4, 17]: 0
- Partial Response [4, 17]: 1
- Stable Disease [4, 17]: 3
- Toxic Deaths [4, 17]: 0
- Complete Response [4, 18]: 8
- Partial Response [4, 18]: 1
- Stable Disease [4, 18]: 0
- Toxic Deaths [4, 18]: 1
